Measured values: PMC10850561, “Eutypellaolides A–J, Sesquiterpene diversity expansion of the polar fungus Eutypella sp. D-1” (Frontiers in Microbiology, 2024)
pIC50: −log10 of the molar value.

Biological target: T1, PTP1B (Homo sapiens, UniProt P18031)
T1 construct: gene PTPN1
T1 sequence (P18031 1-435): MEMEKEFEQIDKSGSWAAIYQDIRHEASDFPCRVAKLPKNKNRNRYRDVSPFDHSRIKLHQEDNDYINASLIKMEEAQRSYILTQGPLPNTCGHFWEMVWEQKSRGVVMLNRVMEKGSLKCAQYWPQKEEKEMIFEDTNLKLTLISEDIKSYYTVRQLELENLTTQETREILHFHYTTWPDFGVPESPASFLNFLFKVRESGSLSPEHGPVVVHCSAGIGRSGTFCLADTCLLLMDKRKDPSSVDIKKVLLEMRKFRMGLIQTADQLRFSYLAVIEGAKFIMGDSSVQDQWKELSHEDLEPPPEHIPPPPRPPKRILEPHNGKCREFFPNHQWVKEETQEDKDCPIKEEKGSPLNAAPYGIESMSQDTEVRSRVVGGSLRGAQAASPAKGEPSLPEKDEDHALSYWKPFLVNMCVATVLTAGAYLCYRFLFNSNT
Assay: PTP1B enzyme inhibition assay in 96-well microplates
Assay type: biochemical

pIC50	Structure (SMILES)
4.35	CO[C@]1(C)C2=CC3=C(CO)C(=O)OC3=C[C@]2(C)CC[C@@H]1O [compound 5, Eutypellaolide E]
4.36	CC1=CCC[C@@H]2CC3=C(CO)C(=O)OC3=CC12C (stereo partly drawn) [compound 11, eut-Guaiane]
4.31	CC1=CC(=O)C[C@@]2(C)C=C3OC(=O)C(CO)=C3C=C12 [compound 14, 2-one-13hydroxy-3,5,8,7(11)-eudesmatetraen-12,8-olide]
